Experiments:
[1] = tested on: rat brain homogenate; assay: Formation of lipid peroxide through the autoxidation of rat brain homogenate (TBA method); format: biochemical; details: for Amount of MDA: 37° C. 30 min, mean ± standard deviation (n = 3); for Rate of Suppression: suppression of lipid peroxide formation
Procedure: The present compound was examined for the effect on the formation of lipid peroxide through the autoxidation of a rat brain homogenate.
Wistars rat (purchased from SLC Japan (Kabushiki Kaisha)) were decapitated without anesthesia and the skull was immediately opened and the brain removed. The brain taken out was washed with ice-cooled, phoshate buffered saline (PBS (50 mM, pH 7.4)), lightly blotted with filter paper and weighed. Four times ice-cooled PBS was added to the brain and homogenized in ice. The homogenate was centrifuged at 1000×g (2700 rpm) for 10 min at 0° C. The supernate thus obtained was used for the test. To 100 μl of the test compound were added 700 μl of PBS and 200 μl of the supernate of the brain homogenate, and incubated at 37° C. for 30 min. A control group and a blank group were incubated with PBS, with the blank group at 0° C. for 30 min. Then, 200 μl of 35% perchloric acid was added to cease the reaction and the mixture was centrifuged at 1300×g (3200 rpm) for 10 min at 0° C. Using the supernate as a sample, the amount of malondialdehyde (MDA) formed was determined by thiobarbituric acid colorimetric method (TBA method).
To 0.11 g (0.5 mmol) of 1,1,3,3-tetraethoxypropane was added methanol to make 50 ml of volume. This solution was diluted 10^3, 3×10^3 and 10^4-folds with methanol and used as the standards (10 μM, 3 μM, 1 μM). Methanol was assigned to 0 μM.
To 1 ml of each of the samples or the standards were added 0.2 ml of 8.1% sodium dodecylsulfate (SDS), 1.5 ml of 20% acetate buffer (pH 3.5) and 0.8% thbiobarbituric acid (TBA) and incubated in a boiling water bath for 60 min. After ice-cooling to cease the reaction, 4 ml of butanol-pyridine (15:1) was added and mixed well. After centrifugation at 1200×g (3000 rpm) for 10 min, the fluorescence intensity of the butanol-pyridine layer was measured at the wavelength of 553 nm with the excitation wavelength of 515 nm.
The rate of suppression of lipid peroxide formation was calculated according to the following equation for each test compound.
Rate of suppression of lipid peroxide formation (%)=[1-(C-A/B-A)]×100
A: Amount (μM) of formed MDA for the blank group
B: Amount (μM) of formed MDA for the control group
C: Amount (μM) of formed MDA for a test compound group

[2] = tested on: acetaminophen-induced hepatopathy; assay: Effect on acetaminophen-induced hepatopathy in mice; format: in vivo; details: male ddy mice
Procedure: The present compound was examined for the effect on acetaminophen-induced hepatopathy in mice.
The compound of Example 2 (abbreviated to ETS-GS-Na) 0.1 mmol/ 10 ml/kg, i.p.
7-week old male ddy mice purchased from SLC Japan (Kabushiki Kaisha) were used for the test following a 24-hour fasting.
Hepatopathy was induced by oral administration of 250 mg/10 ml/kg acetaminophen (dissolved by warming).
24 hours after the oral administration of acetaminophen, blood were sampled for measurement of GOP and GPT activities, indices of hepatopathy. The mice were kept on fasting for 48 hours until the blood sampling was made.
The test compound was intraperitoneally injected 30 min before the administration of acetaminophen.

[3] = tested on: buthionine sulfoximine (BSO)-induced cataract; assay: Effect on BSO-induced cataract in rats; format: in vivo; details: newborn SD rats
Procedure: The present compound was examined for the effect on buthionine sulfoximine (BSO)-induced cataract in rats.
The compound of Example 2 (abbreviated to ETS-GS-Na) 0.1 mmol/10 ml/kg, i.p.
The test was performed according to the method of Maitra et al.
Indrani Maitra, Elena Serbinova et al., α-Lipoic Acid Prevents Buthionine Sulfoximine-induced Cataract Formation in Newborn Rats Free Radical Biology & Medicine, Vol. 18, No. 4, pp.823-829, 1995.
28 to 36-hour old SD rats purchased from SLC Japan (Kabushiki Kaisha) were used for the test.
Cataract was induced by subcutaneously administering 3 mmol/kg of BSO at 8:00 A.M. and 4:00 P.M. for 2 days.
Observation of cataract was performed using a slit lamp microscope after the newborn rats opened their eyes after the BSO administration. The opacity of each of the lenses was assessed and classified into one of the following 0-5 grades.
0: a clear lens without opacity
1: a lens with opacities in part of the equatorial region
2: a lens with opacities along the equatorial region
3: a lens with opacities in part of the cortex
4: a lens with opacities in the whole cortex
5: a lens with opacities advancing up to the central region.
The test compound was intraperitoneally administered 4 and 12 hours after the administration of BSO.

[4] = 0.1 mmol/10 ml/kg i.p. 30 min before acetaminophen 250 mg/kg p.o., blood 24 hours after acetaminophen

Row | Molecule | Amount of MDA ([1]; 3 × 10^−5M) [µM] | Rate of Suppression ([1]; 3 × 10^−5M) | Amount of MDA ([1]; 3 × 10^−6M) [µM] | Rate of Suppression ([1]; 3 × 10^−6M) | Amount of MDA ([1]; 10^−5M) [µM] | Rate of Suppression ([1]; 10^−5M) | Amount of MDA ([1]; 10^−6M) [µM] | Rate of Suppression ([1]; 10^−6M) | effect on acetaminophen-induced hepatopathy ([2]; 0.1 mmol/10 ml/kg i.p.) | blood GOT activity [2, 4] [IU/1] | blood GPT activity [2, 4] [IU/1] | suppression of BSO-induced cataract ([3]; 0.1 mmol/10 ml/kg i.p.) | average grade of lens opacity ([3]; BSO 3 mmol/kg s.c., 0.1 mmol/10 ml/kg i.p. 4 and 12 hours after BSO, slit lamp, grades 0-5)
1 | Cc1c(C)c2c(c(C)c1OC(=O)C(CC(=O)O)SC[C@H](NC(=O)CC[C@H](N)C(=O)O)C(=O)NCC(=O)O)CCC(C)(CCCC(C)CCCC(C)CCCC(C)C)O2 (stereo partly drawn) [Example 1, S-[2-Carboxy-1-(α-tocopheryl-6-yl-oxycarbonyl)Ethyl]glutathione] | 0.838 ± 0.056 | 93.94 ^*3% | 4.079 ± 0.126 | 40.17 ^*3% | 1.338 ± 0.039 | 85.64 ^*3% | 5.208 ± 0.083 | 21.43 ^*2% | – | – | – | – | –
2 | S-[2-(N-Carbonylaminoethylsulfonic acid)-1-(α-tocopheryl-6-yl-oxycarbonyl)ethyl]cysteine [Example 5] | 0.980 ± 0.249 | 91.59 ^*3% | 4.890 ± 0.052 | 26.71 ^*2% | 4.090 ± 0.348 | 39.98 ^*2% | 5.022 ± 0.060 | 24.52 ^*2% | – | – | – | – | –
3 | Cc1c(C)c2c(c(C)c1OC(=O)C(CC(=O)NCCS(=O)(=O)O)SC[C@H](NC(=O)CC[C@H](N)C(=O)O)C(=O)NCC(=O)O)CCC(C)(CCCC(C)CCCC(C)CCCC(C)C)O2 (stereo partly drawn) [Example 2, S-[2-(N-Carbonylaminoethylsulfonic acid)-1-(α-tocopheryl-6-yl-oxycarbonyl)ethyl]glutathione] | – | – | – | – | – | – | – | – | significant suppressing effect | 336±89 | 47±22 | complete suppression | 0

— patent publication US6387882B1, “Vitamin E derivatives” (Senju Pharmaceutical Co., Ltd., priority 1997, dated 2002)
